# Laboratory results reported in patent publication US20200239587A1, “SENSITIZATION OF TUMORS TO THERAPIES THROUGH ENDOGLIN ANTAGONISM” (Cedars-Sinai Medical Center, priority 2016, published 2020).
# Columns and labels:
# Assay type in all cases: cell-based, human
# CW22Rv1 cells [1] = assay: Cell cycle analysis after irradiation
# Protocol: Within each group, the left column depicts G1, middle column depicts S and the right column depicts G2. […] All studies shown are 5 days after irradiation and/or 5 days of treatment with TRC105.
# 22Rv1 were pre-treated with 1 μg/ml TRC105 24 hours prior to irradiation with 4 Gy. FIG. 22A) γ-H2AX or p53 bp were imunolocalized at 4, 24, and 48 hours post radiation. Foci per nuclei were quantified (n=100). FIG. 22B) Comet assay was performed 30 minutes and 24 hours following irradiation. The tail moment was quantified (n=50). FIG. 22C) Cell cycle analysis was performed on 22Rv1 at 0, 4, 8, and 24 hours post radiation in the presence of IgG or TRC105 (n=3) in 3 independent experiments. (***p<0.001, ****p<0.0001).
# CW22Rv1 cells [2] = assay: Seahorse-XF mito-stress test
# Protocol: (§1) Cells were analyzed for mito-stress test by Seahorse-XF 168 hours following 4 Gy of radiation in the presence of IgG or TRC105. FIG. 26A) Basal respiration, non-mito respiration, proton leak, spare respiratory capacity, FIG. 26B) extracellular acidification rate (ECAR) and FIG. 26C) mitochondrial dependent ATP production were quantitated using Wave 2.3.0 analysis. Data are reported as mean+/−S.D. of a representative experiment (n=5) of 3 independent experiments. FIGS. 26A-26C, the first/left column depicts 0Gy+IgG, the second column depicts 0Gy+TRC105, the third column depicts 4Gy+IgG and the last/right column depicts 4Gy+TRC105. FIG. 26D) 22Rv1 cells treated with IgG, TRC105 or nicotinamide were irradiated (4 Gy). Total cellular ATP was measured 0, 24, 72, 120, and 168 hours post radiation. Within each group, the left column is IgG, middle column is TRC105 and the right column is nicotinamide. Data are reported as mean+/−S.D. of 3 independent experiments. (***p<0.001, ****p<0.0001).
# 22Rv1 cells = assay: Total cellular ATP; details: with or without 4 Gy, 0-168 hours
# Protocol: as §1
substance,measurement,setting,value
TRC105: partially humanized monoclonal antibody that blocks BMP signaling; human-specific CD105 (endoglin) neutralizing antibody from Tracon Pharmaceuticals,cell cycle distribution,"CW22Rv1 cells [1]; 4 Gy plus TRC105, 0-24 hours",G2 cell cycle arrest that did not resolve by 24 hours
same,"cell cycle, G2-phase","CW22Rv1 cells [1]; radiation combined with TRC105, 5 days",chronic up regulation of the G2-phase
same,mitochondrial dependent ATP production,CW22Rv1 cells [2]; TRC105 alone,depletion of mitochondrial dependent ATP production
same,spare respiratory capacity,CW22Rv1 cells [2]; TRC105 plus 4 Gy vs radiation alone,further decrease in spare respiratory capacity
same,basal oxidative phosphorylation,"CW22Rv1 cells [2]; TRC105 plus 4 Gy vs radiation alone, 168 hours",decrease in basal oxidative phosphorylation
same,glycolysis (extracellular acidification),CW22Rv1 cells [2]; addition of TRC105 in the context of radiation,blocked glycolysis
same,mitochondrial dependent ATP production,CW22Rv1 cells [2]; combination of radiation and TRC105 vs either agent alone,further depletion
same,cellular ATP stores,22Rv1 cells,depleted regardless of radiation treatment
